# Laboratory results published in patent US20100303932A1 (priority 2009, published 2010).
# Where “and” joins values, the source holds several entries; their conditions need not be identical. Equal entries are not always repeated.
# How the values were obtained:
# Neuro 2a cells [1] = type: cell-based, mouse
# [2] = system: mice injected with BoNT/A; conditions: mouse, in vivo
# [3] = system: mice injected with BoNT/A; conditions: mouse, in vivo; remark: listed apart in the source
# TRPV1 = system: TRPV1; design: species or system mouse
# [4] = system: EDL nerve muscle preparations
# [5] = system: EDL nerve muscle preparations; design: species or system mouse
# motor nerve terminals = system: motor nerve terminals; design: species or system mouse
# [6] = mouse, in vivo
# [7] = system: mice injected with BoNT/A; conditions: mouse, in vivo; remark: listed apart in the source
# [8] = system: mice injected with BoNT/A
# [9] = system: mice injected with BoNT/A; conditions: mouse, in vivo; remark: listed apart in the source
# Neuro 2a cells [10] = type: cell-based, mouse; remark: listed apart in the source
compound,measurement,setting,value
"COc1cc(CNC(=O)CCCC/C=C/C(C)C)ccc1O [capsaicin, trans 8-methyl-N-vanillyl-6-noneamide]",FM1-43 labeling,Neuro 2a cells [1],equivalent to control
same,protective effect of capsaicin on FM1-43 uptake,Neuro 2a cells [1],did not occur
same,Muscle Strength (%) ± SEM,[2],100%
same,motor strength,[2],retained normal motor strength
same,walk time on rotating rod,[3],remained equivalent to non-treated controls
same,expression of TRPV1,TRPV1,did not affect
same,force generation or amplitude of stimulus evoked endplate currents (EPC),[4],no effect
same,mean nerve-evoked twitch tension,[4]; n=4,500 ± 100 mg
same,amplitude of endplate currents (EPCs),[5],reduced this action of BoNT/A
same,endplate potentials (EPPs) in response to 70 Hz nerve stimulation,[5],did not fail
same,inhibitory effect of BoNT/A on mean EPC amplitude,[5],reduced the inhibitory effect of BoNT/A
same,exocytosis-induced uptake of BoNT/A into motor nerve terminals,motor nerve terminals,prevented
same,reduction of BoNT/A uptake into motor nerve terminals by capsaicin,motor nerve terminals,prevented by removal of extracellular Ca^2+
same,Body Weight (gram) ± SEM,[6],32.62 ± 0.56 gram and 33.55 ± 0.51 gram and 38.39 ± 0.93 gram
same,loss of body mass after BoNT/A,[6],reduced the loss of body mass
same,recovery of body weight following BoNT/A,[6],significantly enhanced recovery of body weight
same,Toe spread reflex (TSR),[7],remained completely normal
same,Toe spread reflex (TSR) at times later than 24 hours after BoNT/A,[7],continued unaltered
same,Toe spread reflex (TSR) within 24 hours,[7],remained normal
same,CMAP amplitude compared to BoNT/A alone treated mice,"[8]; mouse, in vivo",significantly greater
same,fold recovery of CMAP from week 1 to week 7,"[8]; mouse, in vivo",approximately 18 fold
same,"muscle strength, body weight, CMAP amplitude and performance on the rotor rod","[8]; mouse, in vivo",normal
same,CMAP amplitude,[8]; n=4,4.6±0.92 mV and 6.7±1.24 mV and 7.6±1.12 mV
same,cessation of grooming behavior after BoNT/A,[9],reduced
same,BoNT/A uptake into Neuro 2a cells,Neuro 2a cells [10],reduced
same,reduction of BoNT/A uptake into Neuro 2a cells by capsaicin,Neuro 2a cells [10],prevented by removal of extracellular Ca^2+
Oc1cc2c(cc1O)CN(C(=S)NCCc1ccc(Cl)cc1)CCC2 [capsazepine],EPC amplitude or time course,[5],no effect
same,amplitude of endplate currents (EPCs),[5],equivalent to that observed after BoNT/A alone
same,inhibitory effect of BoNT/A on mean EPC amplitude,[5],the protective action of capsaicin was abolished
same,toe spread 24 hours post-capsaicin,[7],unable to spread toes
